# Like-named read-outs stand apart in the source and are kept apart here. Marks after values point to notes of the source that are not given here.
# Tests used:
# [1] = tested on: S. aureus, 87037 (LVFX-resistant MRSA); test: antibacterial activity (MIC), standard method of Japanese Society of Chemotherapy; settings: Staphylococcus aureus, MRSA, S. aureus, 87037 (LVFX-resistant MRSA)
# [2] = tested on: bone marrow cells (polychromatic erythrocytes); test: mouse bone marrow micronucleus test; type: in vivo, Slc:ddY male mice; settings: single i.v. dose, 24 h, Example 2: 50, 100 mg/kg, Example 3: 100, 150 mg/kg, Example 9: 50, 100, 150 mg/kg
# Description: The control was 0.1 mol/l NaOH/physiological saline solvent, and the positive control was cyclophosphamide (cyclophoshamide, CP) dissolved and diluted in physiological saline. All samples were sterilized by filtering through Milex GS filter (0.22 μm). Each solution was intravenously administered at a dose of 10 mL/kg in single dose at an administration rate of 0.2 mL/min.
# Bone marrow cells were collected from thigh bone at 24 hours after the administration, and smear preparation was prepared. After staining with acridine orange, 1000 polychromatic erythrocytes per animal were observed under fluorescence microscope to count frequency of micrronucleated polychromatic erythrocyte and ratio of the orthochromatic erythrocytes to the polychromatic erythrocyte in 1000 erythrocytes.
# E. coli NIHJ = test: antibacterial activity (MIC), standard method of Japanese Society of Chemotherapy; settings: Escherichia coli
# hERG K+ channel = hERG K+ channel (Homo sapiens, UniProt Q12809); test: hERG-K^+ channel blocking effect
# hERG K+ channel, sequence (Q12809 whole entry): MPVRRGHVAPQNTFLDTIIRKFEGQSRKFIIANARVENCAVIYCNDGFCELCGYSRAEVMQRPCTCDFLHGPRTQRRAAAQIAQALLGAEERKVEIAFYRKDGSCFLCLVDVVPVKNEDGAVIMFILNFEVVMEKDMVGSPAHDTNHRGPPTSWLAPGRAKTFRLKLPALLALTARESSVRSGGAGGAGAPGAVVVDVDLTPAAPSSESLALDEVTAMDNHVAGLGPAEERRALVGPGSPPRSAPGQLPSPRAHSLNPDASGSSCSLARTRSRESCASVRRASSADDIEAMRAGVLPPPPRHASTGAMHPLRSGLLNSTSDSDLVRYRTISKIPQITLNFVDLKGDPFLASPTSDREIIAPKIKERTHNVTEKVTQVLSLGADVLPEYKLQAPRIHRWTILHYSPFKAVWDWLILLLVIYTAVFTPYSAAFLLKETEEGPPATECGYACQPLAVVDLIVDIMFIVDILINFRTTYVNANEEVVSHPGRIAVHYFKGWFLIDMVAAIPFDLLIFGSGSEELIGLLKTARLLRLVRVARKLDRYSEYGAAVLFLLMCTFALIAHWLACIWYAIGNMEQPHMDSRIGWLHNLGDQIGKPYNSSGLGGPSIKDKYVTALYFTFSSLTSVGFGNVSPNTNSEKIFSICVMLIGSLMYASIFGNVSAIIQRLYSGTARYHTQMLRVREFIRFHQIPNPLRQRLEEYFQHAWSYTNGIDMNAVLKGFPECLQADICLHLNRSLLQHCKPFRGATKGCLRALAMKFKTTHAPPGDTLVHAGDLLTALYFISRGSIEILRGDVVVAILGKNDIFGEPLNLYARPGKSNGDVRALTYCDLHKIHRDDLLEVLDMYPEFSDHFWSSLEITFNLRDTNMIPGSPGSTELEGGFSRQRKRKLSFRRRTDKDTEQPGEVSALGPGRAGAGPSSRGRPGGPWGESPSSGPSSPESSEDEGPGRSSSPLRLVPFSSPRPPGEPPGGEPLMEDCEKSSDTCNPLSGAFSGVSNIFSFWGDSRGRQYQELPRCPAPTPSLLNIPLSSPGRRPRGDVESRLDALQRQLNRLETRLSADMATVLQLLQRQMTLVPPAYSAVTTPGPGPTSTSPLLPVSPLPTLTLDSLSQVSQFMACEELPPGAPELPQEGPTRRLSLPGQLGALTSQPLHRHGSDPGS
# S. marscecens, 10100 = test: antibacterial activity (MIC), standard method of Japanese Society of Chemotherapy
# [3] = male, Crj:CD IGS, rat, in vivo, po, 5 mg/kg
# Description: (§1) The Comparative compound was also evaluated by the same procedure.
# (§2) The test substance was orally administered to fasted rats (7 week old male Crj:CD IGS rats purchased from Charles River Laboratories Japan, Inc.) at a dose of 5 mg/kg.
# (§3) Animals of absorption test group (3 animals per group) were sacrificed by bleeding under etherization at 0.25, 0.5, 1, 2, 4, and 8 hours after the drug administration, and blood, lever, kidney, and lung were collected. The blood was centrifuged (3000 rpm×15 minutes, 4° C.) after coagulation to collect serum. Tissue was homogenized after adding 3 to 5 mL of 0.1 mol/l phosphate buffer (pH 7.0), and the supernatant was collected from the homogenate (3000 rpm×15 minutes, 4° C.).
# (§4) Animals of excretion test group (3 animals per group) were placed in a metabolic cage, and the urine of 0 to 4 hours and 4 to 24 hours after the administration was collected in a water-cooled container. Simultaneously with the collection of the urine, the cage was also washed with about 15 mL of 0.1 mol/l phosphate buffer (pH 7.0) to collect the urine attached to the cage. For evaluation of conjugates such as glucuronide, the collected sample was also aliquoted and hydrolyzed with an equal amount of 1 mol/l aqueous solution of sodium hydroxide, and the hydrolysate was neutralized with 0.5 mol/l hydrochloric acid and measured for its concentration. The concentration was measured by LC-MS/MS method.
# (§5) Pharmacokinetic parameters of the each drug in rat were calculated by from the time course of the average concentration by using pharmacokinetic analysis software PSAG-CP (AS Medica Inc.) in a manner not dependent on the model animal.
# E. faecalis, ATCC 19433 = test: antibacterial activity (MIC), standard method of Japanese Society of Chemotherapy; settings: Enterococcus faecalis, ATCC19433, E. faecalis
# S. aureus, 209P = test: as above; settings: Staphylococcus aureus
# P. vulgaris, 08601 = test: as above; settings: Proteus vulgaris, 08601, P. vulgaris
# [4] = tested on: S. pneumoniae, J24 (penicillin-intermediate resistant bacteria); test: as above; settings: Streptococcus pneumoniae
# in vivo [5] = settings: male, Crj:CD IGS, rat, po, 5 mg/kg
# Description: as §1, §2, §3, §4, §5
# P. aeruginosa, 32104 = test: antibacterial activity (MIC), standard method of Japanese Society of Chemotherapy; settings: Pseudomonas aeruginosa
# S. epidermidis, 56500 = test: as above; settings: Staphylococcus epidermidis, 56500, S. epidermidis
# P. aeruginosa, 32121 = test: as above; settings: Pseudomonas aeruginosa
# [6] = potential convulsant activity upon intracisternal administration, with and without 4-biphenyl acetic acid (BPAA); settings: 5 μg/5 μL/mouse i. cist
# Description: The potential convulsant activity upon intracisternal administration to mouse was also evaluated for the concomitant and administration with 4-biphenyl acetic acid (BPAA: an active metabolite of fenbufen) and in the absence of such concomitant administration. The evaluation was conducted by using 4 week old male Slc:ddY mice (6 animals per group) and intracisternally administering the test substance at a dose of 5 μg/5 μL/mouse (solvent, 0.5% lactic acid). Monitoring of the animals for the convulsion and death was started immediately after the administration and continued to 30 minutes after the administration. When used concomitantly with the BPAA, BPAA was suspended in 5% CMC, and 400 mg/kg was orally administered at a solution amount of 10 mL/kg, and the test substance was intracisternally administered 30 minutes after the BPAA.
# [7] = female, cynomolgus monkey, in vivo, 5 mg/kg
# [8] = tested on: Mycobacterium tuberculosis (sensitive bacteria); test: anti-Mycobacterium tuberculosis (sensitive bacteria) activity, MIC; type: cell-based
# in vivo [9] = settings: female, cynomolgus monkey, po, 5 mg/kg
# [10] = tested on: Mycobacterium tuberculosis (quinolone sensitive); test: anti-Mycobacterium tuberculosis (quinolone sensitive) activity, MIC; type: cell-based
# [11] = design: species or system guinea pigs (Slc:Hertley); settings: guinea pig, in vivo
# Description: Guinea pig maximization test (GPMT) which is a widely accepted model for delayed antigenicity was conducted according to the method of Mugnusson et al. (J. invest. Dermatol., 52, 1969) by using a cutaneous sensitization concentration of 1% and a patch sensitization and induction concentration of 10%. At day 1, the animal was sensitized by cutaneously administering the test substance (the quinolone compounds and the control: vehicle, vaseline) (1% solution in physiological saline+FCA emulsion) at the back of the head of the shaved guinea pigs (7 week old male Slc:Hertley). At day 7, lauryl sodium sulfate (SLC) was applied for stimulus (adjuvant treatment), and on the next day, the test substance coated on a wax paper was patched onto the shaved skin to for sealed sensitization, and after 48 hours (at day 10), the waxed paper was removed. The skin reaction was observed upon the removal. On day 22, the test substance (10%) was patched onto the anterior side of the body for induction, and the induction patching was removed after 24 hours. On the next day (at day 24) and the next day (at day 25), the skin reaction was evaluated according to the description of the document as mentioned above. Erythema and edema were scored, and the case with the total score of 2 or higher was evaluated to be positive with the maximum of the score being 7.
# 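For Tissue AUC0-8 h, Kidney in this document: fasted 7-week-old rats, three per group, tissue sampled up to 8 h post-dose and urine collected over 0–24 h, with conjugates measured after alkaline hydrolysis, concentrations by LC-MS/MS.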
# 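For Tissue AUC0-8 h, Liver in this document: fasted 7-week-old rats, three per group, tissue sampled up to 8 h post-dose and urine collected over 0–24 h, with conjugates measured after alkaline hydrolysis, concentrations by LC-MS/MS.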
# 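For Tissue AUC0-8 h, Lung in this document: fasted 7-week-old rats, three per group, tissue sampled up to 8 h post-dose and urine collected over 0–24 h, with conjugates measured after alkaline hydrolysis, concentrations by LC-MS/MS.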
# 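For Tissue Cmax, Kidney in this document: fasted 7-week-old rats, three per group, tissue sampled up to 8 h post-dose and urine collected over 0–24 h, with conjugates measured after alkaline hydrolysis, concentrations by LC-MS/MS.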
compound,measurement,setting,value
"COc1c(N2C[C@H](C)[C@@](C)(N)C2)c(F)cc2c(=O)c(C(=O)O)cn([C@@H]3C[C@@H]3F)c12 (single isomer, unassigned) [Example 2, 7-[(3R*,4S*)-3-Amino-3,4-dimethylpyrrolidin-1-yl]-6-fluoro-1-[(1R,2S)-2-fluorocyclopropyl]-8-methoxy-1,4-dihydro-4-oxoquinoline-3-carboxylic acid]",MIC,[1],0.78 µg/mL
same,"micronucleus induction rate versus control, evaluation result",[2],negative
same,MIC,E. coli NIHJ,0.012 µg/mL
same,inhibition at 30 µM,hERG K+ channel,3.8 ± 2.1%
same,inhibition at 100 µM,hERG K+ channel,8.5 ± 1.2%
same,inhibition at 300 µM,hERG K+ channel,18.2 ± 4.2%
same,MIC,"S. marscecens, 10100",0.1 µg/mL
same,"Recovery (%) in urine in relation to the amount administered, Recovery (%) including conjugate",[3],26.6%
same,"Tissue AUC0-8 h, Kidney",[3],14700 ng·h/mL
same,"Tissue AUC0-8 h, Liver",[3],17400 ng·h/mL
same,"Tissue AUC0-8 h, Lung",[3],8070 ng·h/mL
same,"Tissue Cmax, Kidney",[3],7.78 µg/g
same,"Tissue Cmax, Liver",[3],10.2 µg/g
same,"Tissue Cmax, Lung",[3],2.46 µg/g
same,MIC,"E. faecalis, ATCC 19433",0.2 µg/mL
same,MIC,"S. aureus, 209P",0.025 µg/mL
same,MIC,"P. vulgaris, 08601",0.025 µg/mL
same,MIC,[4],0.1 µg/mL
same,AUC(0-t),in vivo [5],1310 ng·h/mL
same,Cmax,in vivo [5],670 ng/mL
same,MIC,"P. aeruginosa, 32104",0.2 µg/mL
same,MIC,"S. epidermidis, 56500",0.05 µg/mL
same,MIC,"P. aeruginosa, 32121",0.1 µg/mL
"Cc1c(N2CC(F)[C@](C)(N)C2)c(F)cc2c(=O)c(C(=O)O)cn([C@@H]3C[C@@H]3F)c12 (single isomer, unassigned) [Example 27]",MIC,[1],0.39 µg/mL
same,MIC,E. coli NIHJ,0.006 µg/mL
same,melting point,,215 to 217 °C
same,inhibition at 30 µM,hERG K+ channel,-1.8 ± 6.8%
same,inhibition at 100 µM,hERG K+ channel,0.6 ± 8%
same,inhibition at 300 µM,hERG K+ channel,8.9 ± 11%
same,MIC,"S. marscecens, 10100",0.1 µg/mL
same,MIC,"E. faecalis, ATCC 19433",0.2 µg/mL
same,MIC,"S. aureus, 209P",0.012 µg/mL
same,MIC,"P. vulgaris, 08601",0.006 µg/mL
same,MIC,[4],0.1 µg/mL
same,MIC,"P. aeruginosa, 32104",0.39 µg/mL
same,MIC,"S. epidermidis, 56500",0.05 µg/mL
same,MIC,"P. aeruginosa, 32121",0.1 µg/mL
"O=C(O)c1cn(C2CC2)c2cc(N3CCNCC3)c(F)cc2c1=O [CPFX, ciprofloxacin, reference compound]",MIC,[1],> 6.25 µg/mL
same,MIC,E. coli NIHJ,≤ 0.003 µg/mL
same,MIC,"S. marscecens, 10100",0.025 µg/mL
same,MIC,"E. faecalis, ATCC 19433",0.78 µg/mL
same,MIC,"S. aureus, 209P",0.1 µg/mL
same,MIC,"P. vulgaris, 08601",≤ 0.003 µg/mL
same,MIC,[4],0.39 µg/mL
same,number of dead animals,"[6]; (with BPAA 400 mg/kg oral, 30 minutes before)",6/6**^## (6/6**^##)
same,number of dead animals,[6]; (without BPAA),0/6 (0/6)
same,MIC,"P. aeruginosa, 32104",0.05 µg/mL
same,MIC,"S. epidermidis, 56500",0.2 µg/mL
same,MIC,"P. aeruginosa, 32121",0.025 µg/mL
COc1c(N2C[C@@H](N)C3(CC3)C2)c(F)cc2c(=O)c(C(=O)O)cn([C@@H]3C[C@@H]3F)c12 [Comparative compound 1],"Recovery (%) in urine in relation to the amount administered, Recovery (%) including conjugate",[7],32.9%
same,MIC,[1],0.39 µg/mL
same,MIC,E. coli NIHJ,≤ 0.003 µg/mL
same,inhibition at 30 µM,hERG K+ channel,6.7 ± 8.3%
same,inhibition at 100 µM,hERG K+ channel,13.5 ± 3.1%
same,inhibition at 300 µM,hERG K+ channel,24.8 ± 16.5%
same,MIC,"S. marscecens, 10100",0.05 µg/mL
same,"Recovery (%) in urine in relation to the amount administered, Recovery (%) including conjugate",[3],23.1%
same,Serum AUC0-8 h,[3],1590 ng·h/mL
same,"Tissue AUC0-8 h, Kidney",[3],19300 ng·h/mL
same,"Tissue AUC0-8 h, Liver",[3],15000 ng·h/mL
same,"Tissue AUC0-8 h, Lung",[3],6770 ng·h/mL
same,"Tissue Cmax, Kidney",[3],8.63 µg/g
same,"Tissue Cmax, Liver",[3],9.3 µg/g
same,"Tissue Cmax, Lung",[3],2.59 µg/g
same,MIC,"E. faecalis, ATCC 19433",0.1 µg/mL
same,MIC,"S. aureus, 209P",0.006 µg/mL
same,MIC,"P. vulgaris, 08601",0.012 µg/mL
same,MIC,[4],0.025 µg/mL
same,Cmax,in vivo [5],820 ng/mL
same,MIC,"[8]; H37RV, strain H37Rv",0.06 µg/mL
same,MIC,[8]; strain Kurono,0.06 µg/mL
same,MIC,[8]; strain Ravenel,0.06 µg/mL
same,MIC,[8]; strain TB-s 2,0.125 µg/mL
same,MIC,[8]; strain TB-s 3,0.125 µg/mL
same,MIC,[8]; strain TB-s 4,0.125 µg/mL
same,MIC,[8]; strain TB-s 5,0.06 µg/mL
same,MIC,[8]; strain TB-s 6,0.125 µg/mL
same,MIC,[8]; strain TB-s 7,0.25 µg/mL
same,MIC,[8]; strain TB-s 8,0.06 µg/mL
same,MIC,[8]; strain TB-s 9,0.125 µg/mL
same,MIC,[8]; strain TB-s 10,0.06 µg/mL
same,MIC,[8]; strain TB-s 11,0.125 µg/mL
same,MIC,[8]; strain TB-s 12,0.25 µg/mL
same,MIC,[8]; strain TB-s 13,0.125 µg/mL
same,MIC,[8]; strain TB-s 14,0.125 µg/mL
same,MIC,[8]; strain TB-s 15,0.125 µg/mL
same,MIC,[8]; strain TB-s 16,0.125 µg/mL
same,MIC,[8]; strain TB-s 17,0.125 µg/mL
same,MIC,[8]; strain TB-s 18,0.125 µg/mL
same,MIC,[8]; strain TB-s 19,0.125 µg/mL
same,MIC,[8]; strain TB-s 20,0.25 µg/mL
same,MIC,[8]; strain TB-s 21,0.125 µg/mL
same,MIC,[8]; strain TB-s 22,0.06 µg/mL
same,MIC,"P. aeruginosa, 32104",0.1 µg/mL
same,AUC(0-t),in vivo [9],5110 ng·h/mL
same,Cmax,in vivo [9],840 ng/mL
same,half-life,in vivo [9],5 h
same,MIC,[10]; strain 1 (QR-3),1 µg/mL
same,MIC,[10]; strain 2 (QR-6),128 µg/mL
same,MIC,[10]; strain 3 (QR-1),2 µg/mL
same,MIC,[10]; strain 4 (QR-9),32 µg/mL
same,MIC,[10]; strain MDR 1,0.5 µg/mL
same,MIC,[10]; strain MDR 3,0.5 µg/mL
same,MIC,[10]; strain MDR 4,0.5 µg/mL
same,MIC,[10]; strain MDR 5,1 µg/mL
same,MIC,[10]; strain MDR 7,0.5 µg/mL
same,MIC,[10]; strain MDR 9,0.5 µg/mL
same,MIC,[10]; strain MDR 12,0.5 µg/mL
same,MIC,[10]; strain S 1,2 µg/mL
same,Evaluation in GPMT,[11],Positive
same,Average score in GPMT,"[11]; male, Slc:Hertley",6.8
same,MIC,"S. epidermidis, 56500",0.05 µg/mL
same,MIC,"P. aeruginosa, 32121",0.05 µg/mL
"Cc1c(N2C[C@H](CF)[C@](C)(N)C2)c(F)cc2c(=O)c(C(=O)O)cn([C@@H]3C[C@@H]3F)c12 [Example 22, 7-[(3S,4S)-3-Amino-4-fluoromethyl-3-methylpyrrolidin-1-yl]-6-fluoro-1-[(1R,2S)-2-fluoro-1-cyclopropyl]-8-methyl-1,4-dihydro-4-oxoquinoline-3-carboxylic acid]",MIC,[1],0.78 µg/mL
same,MIC,E. coli NIHJ,0.012 µg/mL
same,melting point,,135 to 137 °C
same,inhibition at 30 µM,hERG K+ channel,-1.3 ± 10.1%
same,inhibition at 100 µM,hERG K+ channel,-0.6 ± 7.9%
same,inhibition at 300 µM,hERG K+ channel,21.5 ± 6.9%
same,MIC,"S. marscecens, 10100",0.1 µg/mL
same,MIC,"E. faecalis, ATCC 19433",0.2 µg/mL
same,MIC,"S. aureus, 209P",0.025 µg/mL
same,MIC,"P. vulgaris, 08601",0.012 µg/mL
same,MIC,[4],0.1 µg/mL
same,MIC,"P. aeruginosa, 32104",0.39 µg/mL
same,MIC,"S. epidermidis, 56500",0.05 µg/mL
same,MIC,"P. aeruginosa, 32121",0.1 µg/mL

# Reference: patent publication US7563805B2, “Tri-, tetra-substituted-3-aminopyrrolidine derivative” (Daiichi Pharmaceutical Co., Ltd., priority 2005, dated 2009)
